Experimental data taken from patent US9205064B2, “Methods for the diagnosis of oncological disorders using epimetabolic shifters, multidimensional intracellular molecules, or environmental influencers” (Berg LLC, priority 2009, dated 2015).

Experiments:
[1] = test system: HepG2 (liver cancer) cells; test: Real-time PCR Diabetes Array; type: cell-based
Procedure: The treatment was initiated on 1×10^5 cells per well, following the procedure utilized in the PaCa2 cells (above, Examples 9-11). However, the total amount of RNA that was extracted from these samples was lower than expected. Reverse transcription is normally done using 1 μg of total RNA (determined by measurement at 260 nm). The maximum volume that can be used per reverse transcription is 8 μl.

[2] = test system: MCF-7; test: Nexin assay for apoptosis (Annexin-V-PE/7-AAD, flow cytometry); type: cell-based; conditions: 50 μM and 100 μM Q10, 24 hours
Source text: (§1) The 7AAD dye will enter into cells with permeabilized cell membranes; primarily those cells that are in late apoptosis. Annexin-V-PE is a dye that binds to Phosphotidyl serine, which is exposed on the outer surface of the plasma membrane in early apoptotic cells. The Nexin reagent thus can be used to differentiate between different populations of apoptotic cells in a flow cytometer.

[3] = test system: PC-3; test: as above; type: cell-based; conditions: 50 μM and 100 μM Q10, 24 hours; less than PaCa2
Source text: as §1

[4] = test system: SK-MEL28; test: as above; type: cell-based; conditions: 50 μM and 100 μM Q10, 24 hours
Source text: as §1

[5] = test system: SKMEL-28 mitochondria; test: 2-D gel electrophoresis of mitochondria enriched samples; type: cell-based
[6] = test system: HASMC cells; test: SeaHorse XF analyzer OCR and ECAR; type: cell-based, human; conditions: hyperglycemic, hypoxic conditions
Source text: Environmental influencers (e.g., MIMs or Epi-shifters) may also be identified by changes in cellular energetics. One example of the measurement of cellular energetics are the real-time measures of the consumption of molecular oxygen and/or the change in pH of the media of a cell culture. For example, the ability of a potential epi-shifter to modulate the metabolic state of a cell may be analyzed using, for example, the XF24 Analyzer (Seahorse, Inc.). This technology allows for real time detection of oxygen and pH changes in a monolayer of cells in order to evaluate the bioenergetics of a cell microenvironment. The XF24 Analyzer measures and compares the rates of oxygen consumption (OCR), which is a measure of aerobic metabolism, and extracellular acidification (ECAR), which is a measure of glycolysis, both key indicators of cellular energetics.
(SeaHorse Biosciences Inc, North Billerica, Mass.).
In this experiment, the OCR and extracellular acidification rate (ECAR) in normal cells lines were obtained in the presence and absence of CoQ10 to determine baseline values. It was observed that in its native nutrient environment, the basal OCR rates in normal cells lines are different, and are usually a function of the physiological roles of the cells in the body. […]
In Table 54 the measured baseline ECAR values (mpH/min) in HASMC were higher compared to that of HDFa. […]

[7] = test system: Succinate Dehydrogenase B in NCIE0808 Mitopreps; test: Western blot of succinate dehydrogenase B in mitochondrial preparations; type: cell-based; conditions: mitochondrial preparations of cancer cells
Procedure: The above blots were stripped by incubating for 30 minutes with methanol, followed by two 10 minute washes with TBS-T, then 30 minutes of incubation with Stripping buffer at 50 deg C., and followed by two washes with 100 ml or more of TBS-T for 30′ each. The blots were scanned in laser scanner to check for complete stripping. The blots were activated with methanol for 5 seconds, washed with water for 5 minutes, and TBST for 15 minutes. The blots were blocked for 1 hour with 5% blocking reagent in TBS-T at room temperature and then washed 3 times with TBS-T (1×-15′; 2×5′ each) and probed with the primary antibody for PKM2, SDHB or SDHC in 5% BSA in TBS-T by incubation overnight at 4 deg C. with gentle shaking. The primary antibody for SDHC (ABNOVA H00006391-M02; antimouse) was at 1:500 dilution. The primary antibody for SDHB was from Abcam ab4714-200; antimouse; at 1:1000 dilution. The primary antibody for Pyruvate Kinase M2 (PKM2) was from Novus Biologicals H00005315-D0IP; antirabbit; at 1:500 dilution. After incubation with primary antibodies, the membranes were washed 3 times with TBS-T (1×-15′; 2×5′ each) and probed with the secondary antibody (SDHB & C antimouse; and PKM2 antirabbit; 1:10,000 dilution) for 1 h on the orbital tilting shaker at room temperature. […]

[8] = test system: SKBr3; test: Nexin assay for apoptosis (Annexin-V-PE/7-AAD, flow cytometry); type: cell-based, human; conditions: 50 μM or 100 μM Q10, 24 hours
Source text: as §1

COC1=C(OC)C(=O)C(C/C=C(\C)CC/C=C(\C)CC/C=C(\C)CC/C=C(\C)CC/C=C(\C)CC/C=C(\C)CC/C=C(\C)CC/C=C(\C)CC/C=C(\C)CCC=C(C)C)=C(C)C1=O [Q10, Coenzyme Q10]
genes regulated in the Diabetes Arrays ([1]; 100 μM Q10, PPARGC1A gene): PPARGC1A
genes regulated in the Diabetes Arrays ([1]; 100 μM Q10, PRKAA1 gene): PRKAA1
genes regulated in the Diabetes Arrays ([1]; 100 μM Q10, SNAP25 gene): SNAP25
apoptotic population [2]: increase only in early apoptotic population
early and late apoptotic population [3]: increase
apoptotic population [4]: increase only in early apoptotic population
PDIA3 (ER60 protein), spot 110: Response ([5]; 100 μM Q10, 19 and 48 hr): Up at 19 and 48 hr
Unknown, spot 131: Response ([5]; 100 μM Q10, 19 and 48 hr): drops more for 19
CCDC58, spot 75: Response ([5]; 100 μM Q10, 48 hr): Up at 48 hr
Unknown protein, spot 11: Response ([5]; 100 μM Q10, after 6 hr): drop to low levels
Beta-Actin, spot 202: Response ([5]; 100 μM Q10, only at 19 hr): Up only at 19 hr
KRT10 (Keratin 10), spot 185: Response ([5]; 100 μM Q10, only at 19 hr): Up only at 19 hr
MLEC (Malectin), spot 246: Response ([5]; 100 μM Q10, only at 19 hr): Up only at 19 hr
ECAR rates [6]: downward trend
SDH Subunit B protein levels [7]: increase SDH protein levels
early and late apoptosis [8]: did not show any significant increases
